Holding throughout (type): cell-based
One test concerns the target T1, BRAF G466V (Homo sapiens, UniProt P15056, G466V).
T1 construct: Horizon Discovery (HCT-116 BRAF−/− cells); host or cells: HCT-116 BRAF−/− cells, clone 8, lentiviral transduction
Briefly: BRAF HiBiT degradation assay, C-terminal HiBiT-tagged BRAF G466V overexpressed in HCT-116 BRAF−/− cells (clone 8), Nano-Glo HiBiT Lytic assay. In a few lines:
(§1)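 HCT-116 BRAF−/− clones stably overexpressing C-terminal HiBiT-tagged mutant BRAF were seeded 24 h before treatment with an 11-point half-log series from 1 μM to 0.01 nM (0.2% DMSO final). Remaining protein was read by HiBiT lytic luminescence, with DMSO and wildtype-cell controls. DC50 was taken as the fitted concentration at 50% remaining protein; observed Dmax is reported relative to DMSO.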

A further test concerns the target T2, BRAF V600E (Homo sapiens, UniProt P15056, V600E).
T2 construct: endogenous C-terminal HiBiT fusion tag on BRAF V600E allele; endogenous in cells; host or cells: A375 clone 1F10 (CRISPR-Cas9 knock-in of the HiBiT tag; parental A375 from ATCC)
The experiment in a line: BRAF HiBiT degradation assay, C-terminal HiBiT-tagged BRAF V600E A375 cells (clone 1F10), Nano-Glo HiBiT Lytic assay. The conditions noted are these: for Dmax: A-375. The procedure, abridged:
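A375 cells (clone 1F10, endogenous C-terminal HiBiT on BRAF V600E) were seeded at 10,000 cells/well, grown 24 h, then dosed in duplicate with an 11-point series from 1 μM to 0.01 nM (0.2% DMSO). Nano-Glo HiBiT lytic luminescence was normalised to DMSO and wildtype-A375 background; DC50 was read at 50% protein remaining, alongside observed Dmax.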

The next test concerns the target T3, BRAF D594G (Homo sapiens, UniProt P15056, D594G).
T3 construct: Horizon Discovery (HCT-116 BRAF−/− cells); host or cells: HCT-116 BRAF−/− cells, clone 63, lentiviral transduction
Briefly: BRAF HiBiT degradation assay, C-terminal HiBiT-tagged BRAF D594G overexpressed in HCT-116 BRAF−/− cells (clone 63), Nano-Glo HiBiT Lytic assay. In a few lines: as §1
(With HiBiT, luminescence reflects the tagged protein that the partner subunit can reach.)

The next test concerns the target T4, BRAF G469A (Homo sapiens, UniProt P15056, G469A).
T4 construct: Horizon Discovery (HCT-116 BRAF−/− cells); host or cells: HCT-116 BRAF−/− cells, clone 34, lentiviral transduction
Briefly: BRAF HiBiT degradation assay, C-terminal HiBiT-tagged BRAF G469A overexpressed in HCT-116 BRAF−/− cells (clone 34), Nano-Glo HiBiT Lytic assay. In a few lines: as §1

[1] abbreviates: BRAF G466V, DC50 at 50%: fitted conc. at Y=50.
The mark [2] stands for this setting: HCT-116, BRAF G466V, percentage protein degraded at maximal compound effect relative to DMSO.
The mark [3] stands for this setting: A375 (BRAF V600E), DC50 at 50%: fitted conc. at Y=50.
The mark [4] stands for this setting: A375 (BRAF V600E), percentage protein degraded at maximal compound effect relative to DMSO.
The mark [5] stands for this setting: BRAF D594G, DC50 at 50%: fitted conc. at Y=50.
Where [6] appears, read: HCT-116, BRAF D594G, percentage protein degraded at maximal compound effect relative to DMSO.
[7] abbreviates: Class 2, BRAF G469A, DC50 at 50%: fitted conc. at Y=50.
The mark [8] stands for this setting: HCT-116, Class 2, BRAF G469A, percentage protein degraded at maximal compound effect relative to DMSO.
[9] abbreviates: BRAF G466V (Class 3), HCT-116 BRAF−/− cells, DC50 at 50% degradation.
Where [10] appears, read: BRAF G466V (Class 3), HCT-116 BRAF−/− cells, observed Dmax relative to DMSO control.
Setting [11] is: A375 (BRAF V600E, Class 1), DC50 at 50% degradation.
Setting [12] is: A375 (BRAF V600E, Class 1), observed Dmax, % protein degraded relative to DMSO control.
[13] abbreviates: BRAF D594G (Class 3), HCT-116 BRAF−/− cells, DC50 at 50% degradation.
[14] abbreviates: BRAF D594G (Class 3), HCT-116 BRAF−/− cells, observed Dmax relative to DMSO control.
The mark [15] stands for this setting: BRAF G469A (Class 2), HCT-116 BRAF−/− cells, DC50 at 50% degradation.
The mark [16] stands for this setting: BRAF G469A (Class 2), HCT-116 BRAF−/− cells, observed Dmax relative to DMSO control.

T3 sequence (P15056 whole entry D594G): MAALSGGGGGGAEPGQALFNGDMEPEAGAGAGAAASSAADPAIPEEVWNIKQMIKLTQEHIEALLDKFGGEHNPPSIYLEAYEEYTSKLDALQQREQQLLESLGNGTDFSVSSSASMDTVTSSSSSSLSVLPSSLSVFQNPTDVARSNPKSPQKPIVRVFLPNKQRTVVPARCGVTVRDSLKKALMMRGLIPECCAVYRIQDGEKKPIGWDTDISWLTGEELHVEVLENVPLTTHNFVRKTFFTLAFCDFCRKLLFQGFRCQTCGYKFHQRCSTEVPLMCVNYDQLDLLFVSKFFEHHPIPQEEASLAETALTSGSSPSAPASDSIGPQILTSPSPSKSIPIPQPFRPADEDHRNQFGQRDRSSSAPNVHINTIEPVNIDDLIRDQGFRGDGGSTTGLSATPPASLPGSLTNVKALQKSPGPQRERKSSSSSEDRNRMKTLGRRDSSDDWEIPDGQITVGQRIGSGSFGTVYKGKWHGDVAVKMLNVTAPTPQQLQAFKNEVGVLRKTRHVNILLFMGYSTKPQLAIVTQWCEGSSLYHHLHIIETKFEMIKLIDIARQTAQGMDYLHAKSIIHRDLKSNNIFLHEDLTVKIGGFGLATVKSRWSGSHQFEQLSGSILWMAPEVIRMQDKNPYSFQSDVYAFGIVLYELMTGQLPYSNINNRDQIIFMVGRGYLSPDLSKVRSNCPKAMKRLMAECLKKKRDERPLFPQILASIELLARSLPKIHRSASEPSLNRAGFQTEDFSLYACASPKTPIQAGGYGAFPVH
T4 sequence (P15056 whole entry G469A): as the sequence (P15056 whole entry D594G) above, with G469A, G594D counted along it
T1 sequence (P15056 whole entry G466V): as the sequence (P15056 whole entry D594G) above, with G466V, G594D counted along it
T2 sequence (P15056 whole entry V600E, the tested form may be a part): as the sequence (P15056 whole entry D594G) above, with G594D, V600E counted along it

In the case of `CCCS(=O)(=O)Nc1cccc(-c2nc(C(C)(C)C)sc2-c2ccnc(Nc3ccc(N4CCN(C(=O)CC5(O)CCN(c6ccc(NC7CCC(=O)NC7=O)cc6F)CC5)CC4)c(F)c3)n2)c1F` (racemic) [Compound 52, Rac-N-{3-[2-tert-butyl-5-(2-{[4-(4-{2-[1-(4-{[(3R)-2,6-dioxopiperidin-3-yl]amino}-2-fluorophenyl)-4-hydroxypiperidin-4-yl]acetyl}piperazin-1-yl)-3-fluorophenyl]amino}pyrimidin-4-yl)-1,3-thiazol-4-yl]-2-fluorophenyl}propane-1-sulfonamide], the 50% degradation concentration (DC50) is above 500 nM on BRAF G466V (setting [1]), below 10 nM at BRAF V600E (setting [3]), above 500 nM at BRAF D594G (setting [5]) and above 500 nM at BRAF G469A (setting [7]). Further, the maximal degradation (Dmax) at BRAF G466V (setting [2]) was below 30%; at BRAF V600E (setting [4]), above 70%; at BRAF D594G (setting [6]), below 30%; at BRAF G469A (setting [8]) it was below 30%.
Regarding `O=C1CC[C@H](c2ccc(N3CCC(CN4CCN(c5ccc(-n6cc(-c7cc(Cl)cc(NS(=O)(=O)N8CCCC8)c7F)c(-c7ccncc7)n6)c(F)c5)CC4)CC3)cc2)C(=O)N1` [Compound 281, N-{5-chloro-3-[1-(4-{4-[(1-{4-[(3R)-2,6-dioxopiperidin-3-yl]phenyl}piperidin-4-yl)methyl]piperazin-1-yl}-2-fluorophenyl)-3-(pyridin-4-yl)-1H-pyrazol-4-yl]-2-fluorophenyl}pyrrolidine-1-sulfonamide], the DC50 was below 10 nM at BRAF G466V (setting [9]), below 10 nM at BRAF V600E (setting [11]), below 10 nM at BRAF D594G (setting [13]) and 10 to 50 nM on BRAF G469A (setting [15]). The Dmax on BRAF G466V (setting [10]) is above 70%; at BRAF V600E (setting [12]) it was above 70%; at BRAF D594G (setting [14]) it was 30 to 70%; on BRAF G469A (setting [16]), 30 to 70%.
Turning to `O=C1CC[C@H](c2ccc(N3CCC(CN4CCN(c5ccc(-n6cc(-c7cc(F)cc(NS(=O)(=O)N8CC[C@@H](F)C8)c7F)c(-c7ccncc7)n6)nc5)CC4)CC3)nc2)C(=O)N1` [Compound 305, (3R)—N-{3-[1-(5-{4-[(1-{5-[(3R)-2,6-dioxopiperidin-3-yl]pyridin-2-yl}piperidin-4-yl)methyl]piperazin-1-yl}pyridin-2-yl)-3-(pyridin-4-yl)-1H-pyrazol-4-yl]-2,5-difluorophenyl}-3-fluoropyrrolidine-1-sulfonamide], the DC50 on BRAF G466V (setting [9]), at BRAF V600E (setting [11]), at BRAF D594G (setting [13]) and on BRAF G469A (setting [15]) was below 10 nM in each case. Moreover, the Dmax on BRAF G466V (setting [10]), on BRAF V600E (setting [12]), at BRAF D594G (setting [14]) and at BRAF G469A (setting [16]) was above 70% in each case.
As to `CCN(C)S(=O)(=O)Nc1cccc(-c2nc(C(C)(C)C)sc2-c2ccnc(Nc3ccc(N4CCN(CC5CCN(c6ccc([C@H]7CCC(=O)NC7=O)cc6)CC5)CC4)cn3)n2)c1F` [Compound 128, (3R)-3-{4-[4-({4-[6-({4-[2-tert-butyl-4-(3-{[ethyl(methyl)sulfamoyl]amino}-2-fluorophenyl)-1,3-thiazol-5-yl]pyrimidin-2-yl}amino)pyridin-3-yl]piperazin-1-yl}methyl)piperidin-1-yl]phenyl}piperidine-2,6-dione], the DC50 was 50 to 500 nM at BRAF G466V (setting [1]), 50 to 500 nM at BRAF V600E (setting [3]), above 500 nM at BRAF D594G (setting [5]) and above 500 nM at BRAF G469A (setting [7]). Moreover, the maximal degradation (Dmax) at BRAF G466V (setting [2]) is 30 to 70%; on BRAF V600E (setting [4]), above 70%; at BRAF D594G (setting [6]), 30 to 70%; at BRAF G469A (setting [8]), below 30%.
In the case of `CCCS(=O)(=O)Nc1cccc(-c2cn(-c3ccc(C4CCN(CC5CCN(c6ccc(C7CCC(=O)NC7=O)cc6)CC5)CC4)cc3)nc2-c2ccncc2)c1F` (racemic) [Compound 25, Rac-N-{3-[1-(4-{1-[(1-{4-[(3R)-2,6-dioxopiperidin-3-yl]phenyl}piperidin-4-yl)methyl]piperidin-4-yl}phenyl)-3-(pyridin-4-yl)-1H-pyrazol-4-yl]-2-fluorophenyl}propane-1-sulfonamide], the DC50 at BRAF G466V (setting [1]) is 10 to 50 nM; on BRAF V600E (setting [3]) it was 10 to 50 nM; on BRAF D594G (setting [5]) it was above 500 nM; at BRAF G469A (setting [7]) it was above 500 nM. Further, the greatest degradation seen (Dmax) at BRAF G466V (setting [2]) is 30 to 70%; at BRAF V600E (setting [4]), above 70%; on BRAF D594G (setting [6]), 30 to 70%; on BRAF G469A (setting [8]) it was below 30%.
For the molecule `CCCS(=O)(=O)Nc1cccc(-c2cn(C3CCN(C(=O)C4CCN(C(=O)C5CCN(c6ccc(C7CCC(=O)NC7=O)cn6)CC5)CC4)CC3)nc2-c2ccncc2)c1F` (racemic) [Compound 7, Rac-N-[3-(1-{1-[1-(1-{5-[(3R)-2,6-dioxopiperidin-3-yl]pyridin-2-yl}piperidine-4-carbonyl)piperidine-4-carbonyl]piperidin-4-yl}-3-(pyridin-4-yl)-1H-pyrazol-4-yl)-2-fluorophenyl]propane-1-sulfonamide], the 50% degradation concentration (DC50) was 50 to 500 nM at BRAF G466V (setting [1]), 10 to 50 nM on BRAF V600E (setting [3]), above 500 nM on BRAF D594G (setting [5]) and above 500 nM at BRAF G469A (setting [7]). Moreover, the greatest degradation seen (Dmax) on BRAF G466V (setting [2]) is 30 to 70%; on BRAF V600E (setting [4]) it was above 70%; on BRAF D594G (setting [6]), 30 to 70%; at BRAF G469A (setting [8]), 30 to 70%.
On to `CCCS(=O)(=O)Nc1cccc(-c2nc(C3CCN(C(=O)C4CCN(CC5CCN(c6ccc(C7CCC(=O)NC7=O)cn6)CC5)CC4)CC3)sc2-c2ccncc2)c1F` (racemic) [Compound 211, Rac-N-{3-[2-(1-{1-[(1-{5-[(3R)-2,6-dioxopiperidin-3-yl]pyridin-2-yl}piperidin-4-yl)methyl]piperidine-4-carbonyl}piperidin-4-yl)-5-(pyridin-4-yl)-1,3-thiazol-4-yl]-2-fluorophenyl}propane-1-sulfonamide], for which the 50% degradation concentration (DC50) was above 500 nM at BRAF G466V (setting [1]), 50 to 500 nM at BRAF V600E (setting [3]), above 500 nM at BRAF D594G (setting [5]) and above 500 nM on BRAF G469A (setting [7]). Further, the Dmax is 30 to 70% on BRAF G466V (setting [2]), above 70% on BRAF V600E (setting [4]), 30 to 70% at BRAF D594G (setting [6]) and below 30% at BRAF G469A (setting [8]).
With `CCCS(=O)(=O)Nc1cccc(-c2nc(C(C)(C)C)sc2-c2ccnc(NC3CC4(C3)CN(C(=O)C3(F)CCN(CC5CCN(c6ccc(C7CCC(=O)NC7=O)cc6)CC5)CC3)C4)n2)c1F` (racemic) [Compound 141, Rac-N-[3-(2-tert-butyl-5-{2-[(2-{1-[(1-{4-[(3R)-2,6-dioxopiperidin-3-yl]phenyl}piperidin-4-yl)methyl]-4-fluoropiperidine-4-carbonyl}-2-azaspiro[3.3]heptan-6-yl)amino]pyrimidin-4-yl}-1,3-thiazol-4-yl)-2-fluorophenyl]propane-1-sulfonamide], the DC50 is above 500 nM on BRAF G466V (setting [1]), 10 to 50 nM on BRAF V600E (setting [3]), above 500 nM on BRAF D594G (setting [5]) and above 500 nM on BRAF G469A (setting [7]). In addition, the Dmax is below 30% on BRAF G466V (setting [2]), above 70% at BRAF V600E (setting [4]), below 30% on BRAF D594G (setting [6]) and below 30% at BRAF G469A (setting [8]).
For the molecule `CCN(C)S(=O)(=O)Nc1cccc(-c2nc(C(C)(C)C)sc2-c2ccnc(Nc3ccc(N4CCN(CC5CCN(c6ccc(C7CCC(=O)NC7=O)cn6)CC5)CC4)cn3)n2)c1F` (racemic) [Compound 126, Rac-(3S)-3-{6-[4-({4-[6-({4-[2-tert-butyl-4-(3-{[ethyl(methyl)sulfamoyl]amino}-2-fluorophenyl)-1,3-thiazol-5-yl]pyrimidin-2-yl}amino)pyridin-3-yl]piperazin-1-yl}methyl)piperidin-1-yl]pyridin-3-yl}piperidine-2,6-dione], the half-maximal degradation concentration (DC50) is 10 to 50 nM on BRAF G466V (setting [1]), 10 to 50 nM at BRAF V600E (setting [3]), below 10 nM on BRAF D594G (setting [5]) and 10 to 50 nM at BRAF G469A (setting [7]). The Dmax on BRAF G466V (setting [2]) was above 70%; at BRAF V600E (setting [4]), above 70%; on BRAF D594G (setting [6]), 30 to 70%; on BRAF G469A (setting [8]) it was 30 to 70%.

For orientation: DC50 means the midpoint of the concentration-degradation curve. A word on the Dmax: it is the greatest extent of degradation seen. A higher Dmax goes with deep degradation.

The values are drawn from patent publication US20260317324A1, “BIFUNCTIONAL COMPOUNDS FOR DEGRADING BRAF VIA UBIQUITIN PROTEOSOME PATHWAY” (Nurix Therapeutics, Inc., priority 2023, published 2026).
